Reference: patent US20230382915A1, “GCN2 AND PERK KINASE INHIBITORS AND METHODS OF USE THEREOF” (Deciphera Pharmaceuticals, LLC, priority 2021, published 2023)
pIC50: −log10 of the molar value.

Tests used:
[1] = system: ATF4 levels in CCRF-CEM leukemia xenograft; experiment: CCRF-CEM xenograft PK/PD model; assay type: in vivo, mice; conditions: Mus musculus, po, in combination with ASNase, 2, 6, 10 h post dose, read-out: inhibition of ATF4 levels compared to vehicle control
Experimental: The CCRF-CEM xenograft model was performed in compliance with all the laws, regulations and guidelines of the National Institutes of Health (NIH) and with the approval of the Animal Care and Use Committee of Labcorp (Ann Arbor, MI), an AAALAC accredited facility. Food and water was provided ad libitum. […] Female Envigo C.B-17 SCID (6-7 weeks old) were inoculated subcutaneously just below the right high axilla with ten million cells in Dulbecco's Phosphate Buffered Saline, using a 27-gauge needle and syringe. When tumor burdens reached 200 mm 3 on average on day 22, mice were randomly assigned into groups such that the mean tumor burden for all groups was within 10% of the overall mean tumor burden for the study population. Groups were treated on days 23-24 as follows: on day 23 vehicle control (dosed orally and IP to mimic combination groups) (n=9); ASNase (Abcam, Cambridge, UK) dosed IP at 1000 U/kg/day (n=9). […] Protein concentrations were determined using BCA protein assay kit (Thermo Fisher Scientific, Waltham, MA). […] Samples were resolved using SDS-PAGE then analyzed using Western blot to quantify phospho-GCN2 (Thr899) (Abcam, Cambridge, UK), total GCN2, ATF4 and beta-Actin (Cell Signaling Technology, Danvers, MA). […] Data is analyzed using GraphPad Prism software (GraphPad, San Diego, CA) to calculate % inhibition.

[2] = system: LoVo colorectal xenograft; experiment: LoVo xenograft efficacy model; assay type: in vivo, mice; conditions: 5 mg/kg BID, 22 days of dosing
Experimental: The LoVo xenograft model was performed in compliance with all the laws, regulations and guidelines of the National Institutes of Health (NIH) and with the approval of the Animal Care and Use Committee of Crown Bioscience (Taicang, China), an AAALAC accredited facility. Food and water were provided ad libitum. […] Female Balb/c nude mice (5-9 weeks old) were inoculated subcutaneously just below the right high axilla with ten million cells in Dulbecco's Phosphate Buffered Saline, using a 27-gauge needle and syringe. When tumor burdens reached 100 mm 3 on average on day 6, mice were randomly assigned into groups such that the mean tumor burden for all groups was within 10% of the overall mean tumor burden for the study population. Groups were treated on days 6-27 as follows: vehicle control (dosed orally) (n=9); Compound 2 dosed orally at 5 mg/kg BID (n=9); Compound 2 dosed orally at 1 mg/kg BID. Tumor volume and body weights were measured three time per week. Tumor burden (mg) was estimated from caliper measurements by the formula: tumor burden (mg=mm 3)=(length×width 2)/2.

[3] = target: GCN2 kinase (Homo sapiens (Human), UniProt Q9P2K8); experiment: Biochemical assay for GCN2 (TR-FRET kinase activity); conditions: 1 mM ATP
GCN2 kinase, sequence (Q9P2K8 whole entry): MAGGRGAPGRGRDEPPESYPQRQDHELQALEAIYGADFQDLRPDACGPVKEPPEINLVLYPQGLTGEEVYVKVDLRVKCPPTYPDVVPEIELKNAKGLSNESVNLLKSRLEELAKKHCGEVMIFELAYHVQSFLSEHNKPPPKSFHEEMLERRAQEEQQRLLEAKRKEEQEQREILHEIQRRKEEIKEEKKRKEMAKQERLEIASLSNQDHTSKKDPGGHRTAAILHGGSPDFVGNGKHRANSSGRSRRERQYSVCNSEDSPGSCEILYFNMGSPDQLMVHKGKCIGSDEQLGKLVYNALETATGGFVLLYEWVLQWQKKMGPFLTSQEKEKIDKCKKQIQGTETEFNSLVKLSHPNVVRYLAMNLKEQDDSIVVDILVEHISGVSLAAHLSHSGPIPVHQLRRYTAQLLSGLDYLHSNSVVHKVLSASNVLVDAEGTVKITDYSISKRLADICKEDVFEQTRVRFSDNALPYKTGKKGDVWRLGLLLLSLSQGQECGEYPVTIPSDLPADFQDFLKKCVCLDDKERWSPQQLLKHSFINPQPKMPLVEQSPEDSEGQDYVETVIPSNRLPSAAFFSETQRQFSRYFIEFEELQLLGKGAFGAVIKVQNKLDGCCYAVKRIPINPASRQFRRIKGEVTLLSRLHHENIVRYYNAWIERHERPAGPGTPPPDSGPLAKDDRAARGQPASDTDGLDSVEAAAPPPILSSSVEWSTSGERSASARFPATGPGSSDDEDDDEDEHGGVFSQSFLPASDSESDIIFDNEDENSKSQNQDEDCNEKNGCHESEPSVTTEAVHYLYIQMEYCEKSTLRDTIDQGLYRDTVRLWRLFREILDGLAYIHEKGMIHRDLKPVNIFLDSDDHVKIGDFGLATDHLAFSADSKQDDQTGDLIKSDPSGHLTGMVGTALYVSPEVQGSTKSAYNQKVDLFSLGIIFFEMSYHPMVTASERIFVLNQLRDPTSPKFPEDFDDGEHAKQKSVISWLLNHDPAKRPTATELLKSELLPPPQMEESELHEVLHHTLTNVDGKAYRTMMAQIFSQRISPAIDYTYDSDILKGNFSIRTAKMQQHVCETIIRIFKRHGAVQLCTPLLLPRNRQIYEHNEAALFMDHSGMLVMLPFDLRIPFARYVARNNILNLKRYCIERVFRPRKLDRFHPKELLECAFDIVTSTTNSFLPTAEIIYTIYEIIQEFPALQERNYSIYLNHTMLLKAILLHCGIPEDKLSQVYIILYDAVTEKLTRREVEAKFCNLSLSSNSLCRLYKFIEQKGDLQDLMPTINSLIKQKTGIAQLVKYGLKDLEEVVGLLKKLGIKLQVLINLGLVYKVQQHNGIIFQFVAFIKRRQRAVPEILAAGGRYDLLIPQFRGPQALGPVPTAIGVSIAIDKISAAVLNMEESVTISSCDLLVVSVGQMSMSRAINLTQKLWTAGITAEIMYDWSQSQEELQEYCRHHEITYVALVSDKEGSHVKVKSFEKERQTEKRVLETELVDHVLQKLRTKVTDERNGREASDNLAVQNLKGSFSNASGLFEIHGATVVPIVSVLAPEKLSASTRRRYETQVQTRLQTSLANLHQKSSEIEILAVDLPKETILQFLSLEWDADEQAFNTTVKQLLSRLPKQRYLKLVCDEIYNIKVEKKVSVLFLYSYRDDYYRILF
Experimental: Activity of GCN2 kinase was determined using a TR-FRET kinase activity assay (e.g. Riddle et al. Analytical Biochemistry (2006) 356(1) 108-116). Assays were conducted in 384-well plates (13 μL assay volume) using 2 nM GCN2 (Carna Biosciences), 130 nM GFP-EIf2α (Invitrogen), 0.2 mg/mL E. coli tRNA (sigma) and 1 mM ATP in kinase buffer (Invitrogen). Inhibition of GCN2 was measured by adding serial diluted test compound (final assay concentration of 0.5% DMSO) followed by a 3-hour incubation. Tb-peIF2α (pSer52) antibody (Invitrogen) (2 nM final assay concentration) in kinase buffer containing EDTA (final assay concentration of 20 mM) was added. After a 60 min incubation at room temperature, TR-FRET was monitored using an excitation wavelength of 340 nm and emission wavelengths of 490 nm and 520 nm. The emission ratio (520/490) at each compound concentration of was converted to percent inhibition using controls (i.e., reaction with no test compound and reaction with a known inhibitor) and IC50 values were calculated by fitting a four-parameter sigmoidal curve to the data using Prism (GraphPad software).

[4] = system: ATF4 in H929 multiple myeloma cells; experiment: H929 ATF4 ELISA assay; assay type: cell-based
Experimental: H929 multiple myeloma cells (catalog #CRL-9068) were obtained from the American Type Culture Collection (ATTC, Manassas, VA). Briefly, cells were grown in RPMI-1640 medium supplemented with 20% heat-inactivated fetal bovine serum (catalog #A3840002, ThermoFisher Scientific, Waltham, MA), 1% Penicillin/Streptomycin/L-Glutamine (catalog #10378016, ThermoFisher Scientific, Waltham, MA), and 0.05 mM 2-mercaptoethanol (catalog #21985-023, ThermoFisher Scientific, Waltham, MA) at 37° C., 5% CO2, and 95% humidity. Cells were expanded until reaching one million five hundred thousand cells per mL at which time they were sub-cultured or harvested for assay use. One million five hundred thousand cells per well in 1 mL complete growth medium were dispensed into 12-well plates and incubated overnight. A serial dilution of test compound was added, and cells were incubated at 37° C., 5% CO2, and 95% for four hours. Cells were lysed then ATF4 levels were measured using an ELISA assay (Proteintech, Rosemont, IL). Absorbance is measured at 450 nm and 544 nM using a Synergy2 or equivalent reader (Biotek, Winooski VT). Data were analyzed using PRISM software (Graphpad, San Diego, CA) to calculate fold stimulation of cellular ATF4 relative to vehicle treated control.

Cn1cc(-c2cccc(NS(=O)(=O)c3cc(Cl)cc(CO)c3Cl)c2F)c2c(N)ncnc21 [Example 2, N-(3-(4-amino-7-methyl-7H-pyrrolo[2,3-d]pyrimidin-5-yl)-2-fluorophenyl)-2,5-dichloro-3-(hydroxymethyl)benzenesulfonamide]
inhibition at 25 mg/kg ([1]; 25 mg/kg orally): 57 to 93%
inhibition at 50 mg/kg ([1]; 50 mg/kg orally): 87 to 91%
mean tumor growth inhibition [2]: 69%
pIC50 [3]: ≥ 7.00
concentration at which maximum ATF4 stimulation occurred ([4]; FIG. 1): around 41 nM
maximum stimulation in ATF4 signal ([4]; FIG. 1): 13 fold
concentrations at which ATF4 expression reverted to basal levels ([4]; FIG. 1, inhibitory phase): ≥ 370 nM
H929 NS ATF4 ELISA (ATF4 stim) ([4]; four hours, relative to vehicle treated control): +++ (an ATF4 stim greater than 10 fold and less than or equal to 20 fold)
